According to US20230141603A1, “BENZODIAZEPINE DERIVATIVES AS GABA A GAMMA1 PAM” (Hoffmann-La Roche Inc., priority 2021, published 2023):

Target: T1, h-GABAA α1β2γ1 (Homo sapiens, UniProt P14867+Q8N1C3)
T1 construct: expressed in transfected cells; host or cells: HEK293F cells (ThermoFisher R79007), membranes
T1 sequence (P14867 28-456): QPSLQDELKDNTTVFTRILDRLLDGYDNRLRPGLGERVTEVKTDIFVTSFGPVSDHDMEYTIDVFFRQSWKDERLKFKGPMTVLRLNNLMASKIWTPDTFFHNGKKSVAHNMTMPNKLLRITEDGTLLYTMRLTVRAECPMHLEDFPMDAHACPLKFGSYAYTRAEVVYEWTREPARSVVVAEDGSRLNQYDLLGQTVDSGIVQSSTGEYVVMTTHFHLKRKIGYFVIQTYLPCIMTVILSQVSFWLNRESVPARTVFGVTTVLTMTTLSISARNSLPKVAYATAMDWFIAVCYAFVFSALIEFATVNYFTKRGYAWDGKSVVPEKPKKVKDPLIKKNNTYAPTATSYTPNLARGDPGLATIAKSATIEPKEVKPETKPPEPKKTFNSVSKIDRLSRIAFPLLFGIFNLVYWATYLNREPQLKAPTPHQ
T1 sequence (P47870 25-512 partner limits assumed): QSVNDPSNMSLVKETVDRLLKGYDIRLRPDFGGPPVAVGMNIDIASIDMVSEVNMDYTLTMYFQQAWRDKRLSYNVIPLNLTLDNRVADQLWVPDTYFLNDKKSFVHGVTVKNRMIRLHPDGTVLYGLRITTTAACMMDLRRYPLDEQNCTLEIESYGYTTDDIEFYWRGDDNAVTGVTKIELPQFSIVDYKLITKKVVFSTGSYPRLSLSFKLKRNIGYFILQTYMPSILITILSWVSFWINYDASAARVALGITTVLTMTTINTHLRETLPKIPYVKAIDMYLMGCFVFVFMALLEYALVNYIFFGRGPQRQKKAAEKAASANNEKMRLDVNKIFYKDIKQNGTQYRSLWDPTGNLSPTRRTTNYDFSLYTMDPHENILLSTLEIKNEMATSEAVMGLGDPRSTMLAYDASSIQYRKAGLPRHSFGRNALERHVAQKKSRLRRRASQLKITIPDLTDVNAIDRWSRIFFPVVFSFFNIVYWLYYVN
T1 sequence (Q8N1C3 36-465): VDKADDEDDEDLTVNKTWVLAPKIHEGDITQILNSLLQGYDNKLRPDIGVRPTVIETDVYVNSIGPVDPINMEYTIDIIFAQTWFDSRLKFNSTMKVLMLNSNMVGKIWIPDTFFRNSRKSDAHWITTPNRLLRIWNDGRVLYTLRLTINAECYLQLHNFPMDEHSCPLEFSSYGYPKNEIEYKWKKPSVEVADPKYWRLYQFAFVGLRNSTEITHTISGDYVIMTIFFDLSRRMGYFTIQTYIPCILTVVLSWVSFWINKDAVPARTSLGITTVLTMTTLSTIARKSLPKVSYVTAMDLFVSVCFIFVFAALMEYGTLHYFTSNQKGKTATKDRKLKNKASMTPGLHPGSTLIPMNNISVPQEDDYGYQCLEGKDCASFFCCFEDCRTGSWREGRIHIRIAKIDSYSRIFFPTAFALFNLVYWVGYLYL
Test: Radioligand binding assay, [3H]RO7239181 competition, HEK293F membranes
Experimental: The affinity of compounds at GABAA γ1 subunit-containing receptors was measured by competition for [^3H]RO7239181 (67.3 Ci/mmol; Roche) binding to membranes from HEK293F cells (ThermoFisher R79007) expressing human (transiently transfected) receptors of composition […], α2β2γ1, α1β2γ1.
Harvested pellets from HEK293F cells expressing the different GABAA receptor subtypes were resuspended in Mannitol Buffer pH 7.2-7.4 (Mannitol 0.29M, Triethylamine 10 mM, Acetic acid 10 mM, EDTA 1 mM plus protease inhibitors (20 tablets Complete, Roche Diagnostics Cat. No. 05 056 489 001 per liter)), washed two times and then resuspended at 1:10 to 1:15 dilution in the same buffer. Cell disruption was performed by stirring the suspension in a Parr vessel #4637 at 435 psi for 15 minutes, and then the suspensions were centrifuged at 1000×g for 15 minutes at 4° C. (Beckman Avanti J-HC; rotor JS-4.2). The supernatant (S1) was transferred in a 21 Schott flask and the pellet (P1) was resuspended with Mannitol Buffer up to 175 ml. The resuspended pellet was transferred into a 250 ml Corning centrifugal beaker and centrifuged at 1500×g for 10 minutes at 4° C. (Beckman Avanti J-HC; rotor JS-4.2). The supernatant (S1) was then transferred in the 21 Schott flask and the pellet was discarded. The supernatants (S1) were centrifuged in 500 ml Beckman polypropylene centrifugal beaker at 15′000×g for 30 minutes at 4° C. (Beckman Avanti J-20 XP; rotor JLA-10.500). The pellet (P2) was resuspended with Mannitol Buffer 1:1 and frozen at −80° C. The supernatant (S2) was centrifuged in 100 ml Beckman polypropylene centrifugal tubes at 48000×g for 50 minutes at 4° C. (Beckman Avanti J-20 XP; rotor JA-18). The supernatant (S3) was discarded and the pellet (P3) was resuspended with 1:1 Mannitol Buffer. The P2 and P3 protein concentration was determined with the BIORAD Standard assay method with bovine serum albumin as standard and measured on the NANO-Drop 1000. The membrane suspension was aliquots (500 μl per tube) and stored at −80° C. until required. Membrane homogenates were resuspended and polytronised (Polytron PT1200E Kinematica AG) in Potassium Phosphate 10 mM, KCl 100 mM binding buffer at pH 7.4 to a final assay concentration determined with a previous experiment.
Assays were incubated to equilibrium for 1 hour at 4° C. and then, membranes were filtered onto unifilter (96-well white microplate with bonded GF/C filters preincubated 20-50 minutes in 0.3% Polyethylenimine) with a Filtermate 196 harvester (Packard BioScience) and washed 4 times with cold Potassium Phosphate 10 mM pH 7.4, KCl 100 mM binding buffer. After drying, filter-retained radioactivity was detected by liquid scintillation counting. Ki values were calculated using Excel-Fit (Microsoft) and are the means of two determinations.

`Cc1ccc2c(c1Cl)C(c1c(F)cccc1F)=NCc1nncn1-2` [Example 17, 7-chloro-6-(2,6-difluorophenyl)-8-methyl-4H-[1,2,4]triazolo[4,3-a][1,4]benzodiazepine] was tested, and the Ki was 47.7 nM.
`Fc1ccccc1C1=NCc2nnc(-c3ccncn3)n2-c2ccc(Cl)c(Cl)c21` [Example 18, 7,8-dichloro-6-(2-fluorophenyl)-1-pyrimidin-4-yl-4H-[1,2,4]triazolo[4,3-a][1,4]benzodiazepine] gave a Ki of 54.1 nM.
Compound `COCCc1nnc2n1-c1ccc(Cl)c(Cl)c1C(c1c(F)cccc1F)=NC2` [Example 19, 7,8-dichloro-6-(2,6-difluorophenyl)-1-(2-methoxyethyl)-4H-[1,2,4]triazolo[4,3-a][1,4]benzodiazepine] has a Ki of 43.9 nM.
Compound `Cc1ccc2c(c1Cl)C(c1c(F)cccc1F)=NCc1nnc(C)n1-2` [Example 20, 7-chloro-6-(2,6-difluorophenyl)-1,8-dimethyl-4H-[1,2,4]triazolo[4,3-a][1,4]benzodiazepine] has a Ki of 37.1 nM.
`CC(F)(F)c1ccc2c(c1Cl)C(c1c(F)cccc1F)=NCc1nncn1-2` [Example 21, 7-chloro-8-(1,1-difluoroethyl)-6-(2,6-difluorophenyl)-4H-[1,2,4]triazolo[4,3-a][1,4]benzodiazepine] was tested, and the Ki was 90.5 nM.
Work on `Cc1nnc2n1-c1ccc(C(C)(F)F)c(Cl)c1C(c1c(F)cccc1F)=NC2` [Example 22, 7-chloro-8-(1,1-difluoroethyl)-6-(2,6-difluorophenyl)-1-methyl-4H-[1,2,4]triazolo[4,3-a][1,4]benzodiazepine] yielded a Ki of 68.7 nM.
In the case of `Fc1cccc(F)c1C1=NCc2nncn2-c2ccc(C(F)F)c(Cl)c21` [Example 23, 7-chloro-8-(difluoromethyl)-6-(2,6-difluorophenyl)-4H-[1,2,4]triazolo[4,3-a][1,4]benzodiazepine], the Ki is reported as 63.9 nM.
`Cc1nnc2n1-c1ccc(Br)c(Cl)c1C(c1ncccc1F)=NC2` [Example 24, 8-bromo-7-chloro-6-(3-fluoro-2-pyridyl)-1-methyl-4H-[1,2,4]triazolo[4,3-a][1,4]benzodiazepine] showed a Ki of 43.6 nM.
For `Cc1nnc2n1-c1ccc(C(F)F)c(Cl)c1C(c1c(F)cccc1F)=NC2` [Example 25, 7-chloro-8-(difluoromethyl)-6-(2,6-difluorophenyl)-1-methyl-4H-[1,2,4]triazolo[4,3-a][1,4]benzodiazepine], the Ki was 68.6 nM.
With `O=c1[nH]nc2n1-c1ccc(Br)c(Cl)c1C(c1ccccc1F)=NC2` [Example 26, 8-bromo-7-chloro-6-(2-fluorophenyl)-2,4-dihydro-[1,2,4]triazolo[4,3-a][1,4]benzodiazepin-1-one] the Ki was 24.1 nM.
`Fc1ccccc1C1=NCc2nnc(-c3cccnn3)n2-c2ccc(C(F)(F)F)c(Cl)c21` [Example 27, 7-chloro-6-(2-fluorophenyl)-1-pyridazin-3-yl-8-(trifluoromethyl)-4H-[1,2,4]triazolo[4,3-a][1,4]benzodiazepine] showed a Ki of 288 nM.
In the case of `Cn1cc(-c2nnc3n2-c2ccc(Cl)c(Cl)c2C(c2c(F)cccc2F)=NC3)cn1` [Example 28, 7,8-dichloro-6-(2,6-difluorophenyl)-1-(1-methylpyrazol-4-yl)-4H-[1,2,4]triazolo[4,3-a][1,4]benzodiazepine], the Ki is reported as 12.6 nM.
Work on `Fc1cccnc1C1=NCc2nncn2-c2ccc(Br)c(Cl)c21` [Example 29, 8-bromo-7-chloro-6-(3-fluoro-2-pyridyl)-4H-[1,2,4]triazolo[4,3-a][1,4]benzodiazepine] yielded a Ki of 66.2 nM.
In the case of `Fc1cccc(F)c1C1=NCc2nncn2-c2ccc(I)c(Cl)c21` [Example 34, 7-chloro-6-(2,6-difluorophenyl)-8-iodo-4H-[1,2,4]triazolo[4,3-a][1,4]benzodiazepine], the Ki is reported as 5.6 nM.
`Cl.NCc1nnc2n1-c1ccc(Br)c(Cl)c1C(c1c(F)cccc1F)=NC2` [Example 36, [8-bromo-7-chloro-6-(2,6-difluorophenyl)-4H-[1,2,4]triazolo[4,3-a][1,4]benzodiazepin-1-yl]methanamine hydrochloride] gave a Ki of 11.9 nM.
